The supplement of paper PMC10307832

What was measured:
Experiment in all cases: relative viability (nuclei count vs DMSO), 5 days (fraction); higher = more cells survive
[1] = compound: C1=CC=C2C(=C1)C=CC(=C2SSC3=C(C=CC4=CC=CC=C43)O)O [IPA-3] + C[C@@H](Oc1cc(-c2cnn(C3CCNCC3)c2)cnc1N)c1c(Cl)ccc(F)c1Cl [Crizotinib] (partner 1 µM)
Outline: (§1)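 Relative viability divides the nuclei count in treated wells by that in vehicle wells. Lung cancer cell lines were seeded in 1536-well plates, dosed by pin tool the next day, and fixed and stained after 5 days in one step with final 0.05% Triton X-100, 1% formaldehyde and 1 ug/ml Hoechst. Dosing was a single drug or a fixed anchor-drug dose plus five library-drug doses (not always all listed) in √10 steps, and values are medians of duplicate plates imaged at 4×.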

[2] = compound: C1=CC=C2C(=C1)C=CC(=C2SSC3=C(C=CC4=CC=CC=C43)O)O [IPA-3] + NC(=O)Nc1cc(-c2cccc(F)c2)sc1C(=O)N[C@H]1CCCNC1 [AZD7762] (partner 0.2 µM)
Outline: as §1

[3] = compound: Cc1ccc(-n2nc(C(C)(C)C)cc2NC(=O)Nc2ccc(OCCN3CCOCC3)c3ccccc23)cc1 [Doramapimod] + CS(=O)(=O)CCNCc1ccc(-c2ccc3ncnc(Nc4ccc(OCc5cccc(F)c5)c(Cl)c4)c3c2)o1 [Lapatinib] (partner 2 µM)
Outline: as §1

[4] = compound: C1=CC=C2C(=C1)C=CC(=C2SSC3=C(C=CC4=CC=CC=C43)O)O [IPA-3] + CCNC(=O)c1noc(-c2cc(C(C)C)c(O)cc2O)c1-c1ccc(CN2CCOCC2)cc1 [Luminespib] (partner 0.01 µM)
Outline: as §1

Cell Line | relative viability ([1]; first compound 0.2 µM) | relative viability ([1]; first compound 0.6325 µM) | relative viability ([1]; first compound 2 µM) | relative viability ([1]; first compound 6.325 µM) | relative viability ([1]; first compound 20 µM) | relative viability ([2]; first compound 0.2 µM) | relative viability ([2]; first compound 0.6325 µM) | relative viability ([2]; first compound 2 µM) | relative viability ([2]; first compound 6.325 µM) | relative viability ([2]; first compound 20 µM) | relative viability ([3]; first compound 0.02 µM) | relative viability ([3]; first compound 0.06325 µM) | relative viability ([3]; first compound 0.2 µM) | relative viability ([3]; first compound 0.6325 µM) | relative viability ([3]; first compound 2 µM) | relative viability ([4]; first compound 0.2 µM) | relative viability ([4]; first compound 0.6325 µM) | relative viability ([4]; first compound 2 µM) | relative viability ([4]; first compound 6.325 µM) | relative viability ([4]; first compound 20 µM)
NCI-H322M | 1.08 | 0.933 | 0.96 | 0.886 | 1.1 | 0.503 | 0.6 | 0.616 | 0.808 | 0.786 | 0.59 | 0.601 | 0.644 | 0.798 | 0.605 | 0.964 | 0.722 | 1.08 | 1.02 | 1.13
ABC-1 | 1.12 | 1.17 |  | 0.981 | 1.06 | 0.888 | 0.766 | 0.737 | 0.992 | 0.965 | 1.03 | 1.15 | 1.17 | 1.54 | 1.35 | 0.723 |  | 0.573 |  | 0.29
LK-2 | 0.202 | 0.229 | 0.227 | 0.22 | 0.193 | 0.456 | 0.394 | 0.355 | 0.672 | 0.397 | 0.972 | 0.873 | 0.904 | 0.68 | 0.754 | 0.179 | 0.193 | 0.17 | 0.189 | 0.222
NCI-H596 | 1.08 | 0.597 | 1.08 | 1.1 | 1.24 | 1.1 | 1.07 | 1.11 | 1.21 | 1.3 | 1.03 | 1.15 | 1.14 | 1.33 | 1.07 | 1.17 | 0.955 | 1.04 | 0.637 | 0.662
NCI-H2405 | 0.863 | 0.865 | 0.856 | 0.841 | 0.878 | 0.89 | 0.806 | 0.847 | 0.771 | 0.73 | 1.15 | 1.1 | 1.07 | 1.16 | 0.969 | 0.722 | 0.599 | 0.688 | 0.666 | 0.762
NCI-H460 | 1.07 | 0.871 | 0.908 | 0.726 | 0.62 | 0.756 | 0.704 | 0.632 | 0.7 | 0.634 | 0.889 | 0.962 | 0.858 | 0.946 | 0.934 | 0.0346 | 0.0286 | 0.0329 | 0.0351 | 0.0331
NCI-H1755 | 0.971 | 0.763 | 0.964 | 0.808 | 0.95 | 0.55 | 0.448 | 0.434 | 0.486 | 0.476 | 0.6 | 1.04 | 1.05 | 1.08 | 1.03 | 0.447 | 0.421 | 0.416 | 0.479 | 0.597
NCI-H358 | 0.454 | 0.663 | 0.611 | 0.595 | 0.574 | 0.618 | 0.566 | 0.5 | 0.508 | 0.48 | 0.508 | 0.426 | 0.472 | 0.571 | 0.443 | 0.535 | 0.313 | 0.265 | 0.385 | 0.255
NCI-H1734 | 0.745 | 0.648 | 0.71 | 0.703 | 0.698 | 0.637 | 0.508 | 0.624 | 0.571 | 0.496 | 1.27 | 0.963 | 0.932 | 1.04 | 0.928 | 0.191 | 0.224 | 0.185 | 0.216 | 0.194
EPLC-272H | 1.16 | 0.808 | 0.995 | 0.912 | 1.23 | 0.185 | 0.204 | 0.218 | 0.234 | 0.16 | 0.942 | 0.983 | 0.945 | 0.979 | 0.745 | 0.469 | 0.473 | 0.352 | 0.416 | 0.553
NCI-H2126 | 1.05 | 0.983 | 1.05 | 1.03 | 1.14 | 1.05 | 0.974 | 1 | 0.958 | 1.05 | 0.815 | 0.811 | 0.781 | 0.735 | 0.662 | 0.998 | 0.819 | 0.921 | 0.902 | 1.1
